In US8217071B2, “Use of inhibitors of the degradation of p27, in particular Argyrin and derivatives thereof, for the treatment of proliferative diseases” (Helmholtz Zentrum für Infektionsforschung GmbH, priority 2007, dated 2012):
Numbered stars: 1 amine (or outer) side, 2 acyl side, 3 side chain; on linkers, the order of the positions; unused ones are H or OH. Square brackets hold non-standard residues; d marks the D form. Peptide text beside a SMILES is read from it. dAla(ψthiazole) = C[C@@H](N[*:1])c1nc(C(=O)[*:2])cs1; Trp(4-OMe) = COc1cccc2[nH]cc(C[C@H](N)C(=O)O)c12; Dha = C=C(N)C(=O)O; Sar = CNCC(=O)O

Tests used:
[1] = system: CD31 positive endothelial cells in tumour tissues (SW480 or HCT116); test: Microvessel density (CD31) in tumour tissue after single injection; type: in vivo, mouse
Experimental: This phenotype is often observed with drugs which interfere with blood vessel formation or compounds which directly damage existing tumour vessels. […] This reduction in tumour vasculature was paralleled by an induction of p27^kip1 expression in the CD31 positive endothelial cells. (FIG. 7A). To understand this phenotype in more detail the inventors analyzed primary tumour material by electronic microscopy. As early as 90 minutes after injection the inventors observed swelling of endothelial cell which was followed by a loss of basal membrane attachment and cell-cell contacts (FIG. 4D) in the tumour vasculature. As a result of the apparent loss of cell and basal membrane attachment after Argyrin A treatment many of the examined tumour blood vessels were occluded with endothelial cells or erythrocytes. The destruction of the tumour core which the inventors observed after Argyrin A treatment might therefore be a result of thrombotic occlusion of the affected blood vessels. In contrast the bortezomib induced reduction in CD31 positive cells correlated with the appearance of necrotic endothelial cells (FIG. 4D).
Treatment with Argyrin A or bortezomib was started when these tumours reached a volume of 200 mm3. […] (n=8 Argyrin A, n=8 Bortezomib, n=6 PBS/EtOH) b) The pictures show the macroscopic appearance of a xenotransplant tumour after 10 days of treatment with Argyrin A. Note the large necrotic centre of the explanted tumour. c) After a single injection of Argyrin A (0.15 mg/kg bodyweight) or bortezomib (1.0 mg/kg bodyweight) tumours were explanted at the indicated time points and blood vessels in the tumour tissue were co-stained for CD31 and p27. […] Note the swelling of the endothelial cell (“E”) and the occlusion of the lumen (“L”) by erythrocytes after 90 minutes of Argyrin A treatment. The arrow marks the detachment of endothelial cells after 48 h of Argyrin A treatment. […] Tube length (f) and blood vessel like […] structures were determined using photographs of HUVEC cultures. The micrographs show representative examples of HUVEC cultures under the indicated conditions.
Immunohistochemical staining of mouse tumour tissue, western Blotting and immunofluorescence experiments were done as previously described (Timmerbeul, I. et al. Testing the importance of p27 degradation by the SCFskp2 pathway in murine models of lung and colon cancer. Proc Natl Acad Sci USA 103, 14009-14 (2006). Kossatz, U. et al. C-terminal phosphorylation controls the stability and function of p27^kip1. Embo J 25, 5159-70 (2006).). […]

[2] = system: mouse embryonic fibroblasts from p27^kip1 knockout mice; test: Apoptosis (sub-G1 fraction) by flow cytometry in p27 knockout MEF; type: cell-based; conditions: for apoptosis in p27 knockout MEF: sub G1 fraction
Excerpt: Next the inventors tested whether the stabilization of p27 was indeed required for the apoptosis inducing function of Argyrin A or was merely a consequence of proteasome inhibition. For this the inventors treated immortalized mouse embryonic fibroblasts from p27^kip1 wildtype or knockout mice with Argyrin A or the proteasome inhibitor bortezomib and assayed cell cycle distribution and apoptosis by flow cytometry. […] These differences in sensitivity in response to Argyrin A treatment were not due to differences in the accumulation of other proteasomal substrates in p27 wildtype and knockout cells as p53 and p21 levels increased in both cell lines in response to Argyrin A (FIG. 6B). To extend this observation to human cancer cells the inventors reduced the levels of p27^kip1 in HeLa cells using p27^kip1 specific siRNA.
The results shown are the average numbers for six independent experiments. b+d) Wildtype (b) and p27 knockout (d) MEF were treated with Argyrin A or transfected with siRNAs specific for the β1, β2 or β5 subunit of the proteasome for 24 hours. The graphs show the remaining catalytic activity of the different proteasome subunits after Argyrin A or siRNA treatment compared to an untreated control (n=3). The western blots show the expression of the β1, β2 or β5 subunit of the proteasome in proliferating cells and after treatment with siRNAs for a representative experiment. c+e) Flow cytometric measurements of the number of apoptotic cells (sub-G1 fraction) after Argyrin A or siRNA treatment in wildtype (c) or p27 knockout (E) MEF. f) HeLa cells were treated with Argyrin A or siRNA against p27 or Argyrin A and siRNA against p27 for either 24 or 48 hours.
MTT assays were done as previously described (Sasse, F. et al. Argyrins, immunosuppressive cyclic peptides from myxobacteria. I. Production, isolation, physico-chemical and biological properties. J Antibiot (Tokyo) 55, 543-51 (2002)). TUNEL staining of tissue sections was performed on 10 micrometer sections which were deparafinised and treated as recommended by the manufacturer. (In Situ Cell Death Detection Kit, Fluorescein; ROCHE, Cat #11 684 795 910). Flow cytometric analysis of cultured cells was done using a Becton Dickinson fluorescence cytometer as previously described (Malek, N. P. et al. A mouse knock-in model exposes sequential proteolytic pathways that regulate p27^Kip1 in G1 and S phase. Nature 413, 323-7 (2001)). Analysis of the distribution of cells in the cell cycle and the sub-G1 fraction was done using Cell Quest software. A histone-associated-DNA-fragments ELISA was used to determine the number of apoptotic cells according to manufacturers instructions (Roche #11 774425001).

Row | Compound | CD31 positive cells remaining ([1]; 72 hours after injection) | number of CD31 positive endothelial cells ([1]; single injection) | start of reduction of CD31 positive endothelial cells after injection ([1]; single injection) | p27^kip1 knockout fibroblasts undergoing apoptotic cell death ([2]; after 60 hours of treatment) | apoptosis, share of all fibroblasts derived from p27 knockout mice ([2]; comparable levels of proteasome inhibition, 24 hours) | apoptosis in p27 knockout MEF [2] | apoptosis in p27 knockout MEF ([2]; listed as Bortezomib)
1 | C=C1NC(=O)[C@@H](C)NC(=O)CNC(=O)[C@H](Cc2c[nH]c3cccc(OC)c23)NC(=O)[C@H](Cc2c[nH]c3ccccc23)NC(=O)c2csc(n2)[C@@H](C)NC(=O)CN(C)C1=O [Argyrin A] (cyclo(W[Trp(4-OMe)]G[dA][Dha][Sar][dAla(ψthiazole)])) | about 10% | significant reduction | ≥ 90 min | ten | 5% |  | 
2 | CC(C)C[C@H](NC(=O)[C@H](Cc1ccccc1)NC(=O)c1cnccn1)B(O)O [bortezomib, reference compound] |  | reduction |  |  |  | massive apoptosis | induced apoptosis
